Results: patent publication US20260102407A1, “TREATMENT METHODS” (priority 2020, published 2026)

How the values were obtained:
VCAM-1 = test: Matrigel plug assay, VCAM-1 staining; type: in vivo; settings: C57BL/6 mice; 2.5 mg/mouse; 7 days
Description: Matrigel plug assay. Matrigel (500 μl) containing VEGF-A165 (100 ng/ml), heparin (10U) and BT2 or BT3 (2.5 mg/mouse) or its vehicle (saline containing 0.01% DMSO and 0.5% Tween 80) was injected subcutaneously into the left flanks of male 8 week-old C57BL/6 mice. After 7d the mice were sacrificed by CO2 asphyxiation and the plugs carefully removed. Formalin-fixed paraffin embedded sections were prepared from Matrigel plugs for immunohistological assessment. Heat-induced epitope retrieval was applied to all deparaffinized sections (4 μm Superfrost slides) in citrate buffer, pH 6 for 5 min at 110° C. Immunostaining for all groups with a given antibody was performed simultaneously and development time was identical. […]
Slides were scanned using an Aperio ScanScope XT slide scanner (Leica Biosystems, Mt Waverley, Vic Australia) and images captured using ImageScope software (Leica Biosystems). Positive intraplug staining was assessed using Image-Pro Plus software (Cybernetics, Bethesda, MD) in 5-12 randomly selected fields of view for each plug photographed under 10× (CD31), 20× (VCAM-1) and 40× (FosB) objectives and expressed as integrated optical density (IOD, the product of calibrated intensity (optical density) and area, i.e. IOD=intensity (mean)×area) (Media Cybernetics) (Liu, H., et al., Sci Rep 6, 21319 (2016)). […]

THP-1 adhesion to HMEC = test: Endothelial-monocytic cell adhesion assay; type: cell-based, human; settings: 20 ng/ml IL-1β, calcein-labeled THP-1
Description: Endothelial-monocytic cell adhesion assay. HMEC (80-90% confluency) in 96-well plates were deprived of serum for 24 h and treated with compound at indicated concentrations for 1 h then incubated with IL-1β (20 ng/ml) for 4 h. Meanwhile THP-1 were labeled with 5 μM calcein (5×10^6 cells/ml, BD Bioscience) for 30 min at 37° C. followed by washing 3 times with PBS. THP-1 (2.5×10^5 cells/well) were then added for 30 min, unbound cells were washed off 3 times in PBS. Adhesion of calcein-labeled THP-1 to the endothelium layer was determined in a fluorescent plate reader at excitation 485 nm and emission 530 nm.

p-p38 = test: Western blot, IL-1β-inducible p-p38 in HMEC-1; type: cell-based, human; settings: 1-30 μM
Description: Western blot analysis with extracts of cells treated with IL-13. HMEC-1 (80-90% confluency) were arrested in serum-free MCDB131 medium (Invitrogen, MD) without any growth factor for 48 h. Cells were treated with 30 μM compound in serum-free medium for 4 h, and incubated with 20 ng/ml IL-1β (Sigma, cat. SRE3083) in serum-free medium with the same concentration of compound for up to 4 h, unless otherwise indicated. Total protein was harvested as previously described using RIPA buffer with protease inhibitors. Proteins were resolved on 4-20% (w/v) SDS-polyacrylamide gradient gels and transferred to Immobilon-P PVDF membranes. […] Chemiluminescence was detected using the Western Lightning Chemiluminescence system and ImageQuant™ LAS 4000 biomolecular imager. Band intensity in images generated with the LAS 4000 using the same settings were quantified by NIH ImageJ.

HMEC-1 = test: Endothelial network formation assay on Matrigel; type: cell-based, human
Description: Endothelial network formation assay. HMEC-1 (4×10^4 cells/well) in MCDB131 containing 1% FBS and compound (1 or 3 μM) or curcumin (1-40 μM) and 50 ng/ml FGF-2 were added to 96-well plates coated overnight at 4° C. with 100 μl of growth factor-reduced reconstituted basement membrane matrix (Matrigel, cat. 354230, Corning, NY). Network formation was observed over subsequent hours and photographed under 4× or 10× objective using an Olympus CKX41 microscope.

SMILES: CCOC(=O)Nc1ccc2c(c1)C(=O)N(CC)c1ccccc1O2 [BT2, (10-ethyl-11-oxo-10,11-dihydro-dibenzo[b,f][1,4]oxazepin-2-yl)-carbamic acid ethyl ester]
- VCAM-1 immunoreactivity in Matrigel plugs (VCAM-1): inhibited
- THP-1 adhesion to IL-1β-treated endothelial cells (THP-1 adhesion to HMEC): inhibited by BT2
- IL-1β-inducible p-p38 (p-p38): no effect
- endothelial network formation (HMEC-1; 1 μM, after 4 h): abolished network formation
- endothelial network (tubule) formation on Matrigel (HMEC-1; 3 μM, 1% FBS, 50 ng/ml FGF-2, 2, 4, 6 and 24 h): inhibited network formation
- potency relative to curcumin in network formation assay (HMEC-1; after 4 h): > 40 fold
